The molecules below were run against T1, wild-type human ALK (cytoplasmic domain, amino acids 1058-1620, N-terminal GST fusion) (Homo sapiens, UniProt Q9UM73) (assay: ALK Inhibition in Enzyme Assay (Lance TR-FRET kinase assay)).
T1 construct: The cytoplasmic domain (amino acids 1058-1620) of wild-type human ALK; GST (N); made in house; host or cells: SF9 insect cells
Type: biochemical
Method: ALK Inhibition in Enzyme Assay
Kinase activity of the purified protein was assessed using a Lance® TR-FRET assay. […] The reaction was allowed to proceed for 90 minutes at room temperature and was then terminated with 20 mM EDTA in 50 mM Tris (pH 7.5), 100 mM NaCl, 0.05% BSA, and 0.1% Tween-20. Phosphorylation of the peptide substrate was detected using the Lance® detection reagents streptavidin-allophycocyanin (SA-APC) and Eu-W1024 anti-phosphotyrosine antibody (PT66) from Perkin Elmer Life Sciences (Waltham, Mass.). The plates were read on a RUBY star plate reader (BMG LABTECH, Cary, N.C.) with an excitation wavelength of 320 nm.

T1 sequence (Q9UM73 1058-1620): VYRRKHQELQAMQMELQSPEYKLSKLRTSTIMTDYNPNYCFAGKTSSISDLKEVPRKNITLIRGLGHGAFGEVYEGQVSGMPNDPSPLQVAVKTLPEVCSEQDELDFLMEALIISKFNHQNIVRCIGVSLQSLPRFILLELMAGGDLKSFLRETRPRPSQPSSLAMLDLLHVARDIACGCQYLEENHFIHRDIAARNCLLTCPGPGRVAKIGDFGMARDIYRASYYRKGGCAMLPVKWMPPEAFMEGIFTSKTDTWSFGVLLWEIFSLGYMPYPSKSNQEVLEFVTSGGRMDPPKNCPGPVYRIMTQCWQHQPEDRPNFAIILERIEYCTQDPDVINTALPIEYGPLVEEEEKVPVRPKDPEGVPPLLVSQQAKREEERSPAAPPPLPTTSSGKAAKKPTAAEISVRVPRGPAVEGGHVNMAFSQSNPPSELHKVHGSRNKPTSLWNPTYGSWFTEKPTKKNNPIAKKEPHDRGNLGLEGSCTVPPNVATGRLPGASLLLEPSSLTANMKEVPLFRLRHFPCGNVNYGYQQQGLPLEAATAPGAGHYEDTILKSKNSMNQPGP

| Compound | IC50 [nM] |
| --- | --- |
| O=C(/N=c1\[nH]c2cnc(OCCN3CCCCC3)cc2n1C1CCNCC1)c1ccccc1 [Example 65, (E)-N-(6-(2-(Piperidin-1-yl)ethoxy)-1-(piperidin-4-yl)-1H-imidazo[4,5-c]pyridin-2(3H)-ylidene)benzamide] | 1000 to 5000 |
| CCS(=O)(=O)N1CCC(n2/c(=N/C(=O)c3ccccc3)[nH]c3cnc(OCCN4CCCCC4)cc32)CC1 [Example 66, (E)-N-(1-(1-(Ethylsulfonyl)piperidin-4-yl)-6-(2-(piperidin-1-yl)ethoxy)-1H-imidazo[4,5-c]pyridin-2(3H)-ylidene)benzamide] | 100 to 1000 |
| CNS(=O)(=O)N1CCC(n2/c(=N/C(=O)c3ccccc3)[nH]c3cnc(OCCN4CCCCC4)cc32)CC1 [Example 67, (E)-N-(1-(1-(N-Methylsulfamoyl)piperidin-4-yl)-6-(2-(piperidin-1-yl)ethoxy)-1H-imidazo[4,5-c]pyridin-2(3H)-ylidene)benzamide] | 100 to 1000 |
| CC(C)CN1CCC(n2/c(=N/C(=O)c3ccccc3)[nH]c3cnc(OCCN4CCCCC4)cc32)CC1 [Example 68, (E)-N-(1-(1-Isobutylpiperidin-4-yl)-6-(2-(piperidin-1-yl)ethoxy)-1H-imidazo[4,5-c]pyridin-2(3H)-ylidene)benzamide] | 5000 to 10000 |
| CC(C)S(=O)(=O)N1CCC(n2/c(=N/C(=O)c3ccccc3)[nH]c3cnc(OCCN4CCCCC4)cc32)CC1 [Example 69, (E)-N-(1-(1-(Isopropylsulfonyl)piperidin-4-yl)-6-(2-(piperidin-1-yl)ethoxy)-1H-imidazo[4,5-c]pyridin-2(3H)-ylidene)benzamide] | 100 to 1000 |
| CC(=O)[C@H]1CC[C@@H](n2/c(=N/C(=O)c3cccc(F)c3)[nH]c3ccc(CN4CCC(C(C)(C)O)CC4)cc32)CC1 [Example 71, (E)-N-(1-(cis-4-Acetylcyclohexyl)-6-((4-(2-hydroxypropan-2-yl)piperidin-1-yl)methyl)-1H-benzo[d]imidazol-2(3H)-ylidene)-3-fluorobenzamide] | 100 to 1000 |
| CC(C)NC(C)[C@H]1CC[C@@H](n2/c(=N/C(=O)c3cccc(F)c3)[nH]c3ccc(CN4CCC(C(C)(C)O)CC4)cc32)CC1 (stereo partly drawn) [Example 72, (E)-3-Fluoro-N-(6-((4-(2-hydroxypropan-2-yl)piperidin-1-yl)methyl)-1-(cis-4-(1-(isopropylamino)ethyl)cyclohexyl)-1H-benzo[d]imidazol-2(3H)-ylidene)benzamide] | < 50 |
| Cc1n[nH]c([C@H]2CC[C@@H](n3/c(=N/C(=O)c4cccc(F)c4)[nH]c4ccc(CO)cc43)CC2)n1 [Example 73, (E)-3-Fluoro-N-(6-(hydroxymethyl)-1-(cis-4-(3-methyl-1H-1,2,4-triazol-5-yl)cyclohexyl)-1H-benzo[d]imidazol-2(3H)-ylidene)benzamide] | 100 to 1000 |
| Cc1n[nH]c([C@H]2CC[C@@H](n3/c(=N/C(=O)c4cccc(F)c4)[nH]c4ccc(CN5CCC(C(C)(C)O)CC5)cc43)CC2)n1 [Example 74, (E)-3-Fluoro-N-(6-((4-(2-hydroxypropan-2-yl)piperidin-1-yl)methyl)-1-(cis-4-(3-methyl-1H-1,2,4-triazol-5-yl)cyclohexyl)-1H-benzo[d]imidazol-2(3H)-ylidene)benzamide] | < 50 |
| CNCC(=O)N1CCC(n2/c(=N/C(=O)c3ccccc3)[nH]c3cnc(OCCN4CCCCC4)cc32)CC1 [Example 75, (E)-N-(1-(1-(2-(Methylamino)acetyl)piperidin-4-yl)-6-(2-(piperidin-1-yl)ethoxy)-1H-imidazo[4,5-c]pyridin-2(3H)-ylidene)benzamide] | 100 to 1000 |
| CN(CC(=O)N1CCC(n2/c(=N/C(=O)c3ccccc3)[nH]c3cnc(OCCN4CCCCC4)cc32)CC1)C(=O)OC(C)(C)C [Example 76, (E)-tert-Butyl 2-(4-(2-(benzoylimino)-6-(2-(piperidin-1-yl)ethoxy)-2,3-dihydro-1H-imidazo[4,5-c]pyridin-1-yl)piperidin-1-yl)-2-oxoethyl(methyl)carbamate] | 1000 to 5000 |
| CCOC(=O)[C@H]1CC[C@@H](n2/c(=N/C(=O)c3cccc(F)c3)[nH]c3cnc(OCCO)cc32)CC1 [Example 77, cis-Ethyl 4-((E)-2-(3-fluorobenzoylimino)-6-(2-hydroxyethoxy)-2,3-dihydro-1H-imidazo[4,5-c]pyridin-1-yl)cyclohexanecarboxylate] | < 50 |
| CCOC(=O)[C@H]1CC[C@@H](n2/c(=N/C(=O)c3cccc(F)c3)[nH]c3cnc(OCCN4CCC(C(C)(C)O)CC4)cc32)CC1 [Example 78, cis-Ethyl 4-((E)-2-(3-fluorobenzoylimino)-6-(2-(4-(2-hydroxypropan-2-yl)piperidin-1-yl)ethoxy)-2,3-dihydro-1H-imidazo[4,5-c]pyridin-1-yl)cyclohexanecarboxylate] | < 50 |
| CC(C)(O)C1CCN(CCOc2cc3c(cn2)[nH]/c(=N\C(=O)c2cccc(F)c2)n3[C@H]2CC[C@@H](C(=O)O)CC2)CC1 [Example 79, cis-4-((E)-2-(3-Fluorobenzoylimino)-6-(2-(4-(2-hydroxypropan-2-yl)piperidin-1-yl)ethoxy)-2,3-dihydro-1H-imidazo[4,5-c]pyridin-1-yl)cyclohexanecarboxylic acid] | 1000 to 5000 |
| CC(C)(O)C1CCN(CCOc2cc3c(cn2)[nH]/c(=N\C(=O)c2cccc(F)c2)n3[C@H]2CC[C@@H](C(=O)N3CC(F)(F)C3)CC2)CC1 [Example 80, (E)-N-(1-(cis-4-(3,3-Difluoroazetidine-1-carbonyl)cyclohexyl)-6-(2-(4-(2-hydroxypropan-2-yl)piperidin-1-yl)ethoxy)-1H-imidazo[4,5-c]pyridin-2(3H)-ylidene)-3-fluorobenzamide] | < 50 |
| CC(C)(O)C1CCN(CCOc2cc3c(cn2)[nH]/c(=N\C(=O)c2cccc(F)c2)n3[C@H]2CC[C@@H](C(=O)N3CC(O)C3)CC2)CC1 [Example 81, (E)-3-Fluoro-N-(1-(cis-4-(3-hydroxyazetidine-1-carbonyl)cyclohexyl)-6-(2-(4-(2-hydroxypropan-2-yl)piperidin-1-yl)ethoxy)-1H-imidazo[4,5-c]pyridin-2(3H)-ylidene)benzamide] | 100 to 1000 |
| COC(=O)[C@H]1CC[C@@H](n2/c(=N/C(=O)c3ccc(F)cc3)[nH]c3ccc(CN4CCOCC4)cc32)CC1 [Example 85, cis-Methyl 4-((E)-2-(4-fluorobenzoylimino)-6-(morpholinomethyl)-2,3-dihydro-1H-benzo[d]imidazol-1-yl)cyclohexanecarboxylate] | < 50 |
| CC(C)NC(=O)[C@H]1CC[C@@H](n2c(N)nc3cnc(OCCN4CCCCC4)cc32)CC1 [Example 86, cis-4-(2-Amino-6-(2-(piperidin-1-yl)ethoxy)-1H-imidazo[4,5-c]pyridin-1-yl)-N-isopropylcyclohexanecarboxamide] | 5000 to 10000 |
| CC(C)NC(=O)[C@H]1CC[C@@H](n2/c(=N/C(=O)c3ccc4ccsc4c3)[nH]c3cnc(OCCN4CCCCC4)cc32)CC1 [Example 87, (E)-N-(1-(cis-4-(Isopropylcarbamoyl)cyclohexyl)-6-(2-(piperidin-1-yl)ethoxy)-1H-imidazo[4,5-c]pyridin-2(3H)-ylidene)benzo[b]thiophene-6-carboxamide] | 50 to 100 |
| CC(C)NC(=O)[C@H]1CC[C@@H](n2/c(=N/C(=O)c3cncs3)[nH]c3cnc(OCCN4CCCCC4)cc32)CC1 [Example 88, (E)-N-(1-(cis-4-(Isopropylcarbamoyl)cyclohexyl)-6-(2-(piperidin-1-yl)ethoxy)-1H-imidazo[4,5-c]pyridin-2(3H)-ylidene)thiazole-5-carboxamide] | 50 to 100 |
| CC(C)NC(=O)[C@H]1CC[C@@H](n2/c(=N/C(=O)c3ccc(C#N)cc3)[nH]c3cnc(OCCN4CCCCC4)cc32)CC1 [Example 89, (E)-4-Cyano-N-(1-(cis-4-(isopropylcarbamoyl)cyclohexyl)-6-(2-(piperidin-1-yl)ethoxy)-1H-imidazo[4,5-c]pyridin-2(3H)-ylidene)benzamide] | < 50 |
| CC(C)NC(=O)[C@H]1CC[C@@H](n2/c(=N/C(=O)c3ccncc3)[nH]c3cnc(OCCN4CCCCC4)cc32)CC1 [Example 90, (E)-N-(1-(cis-4-(Isopropylcarbamoyl)cyclohexyl)-6-(2-(piperidin-1-yl)ethoxy)-1H-imidazo[4,5-c]pyridin-2(3H)-ylidene)isonicotinamide] | < 50 |
| CC(C)NC(=O)[C@H]1CC[C@@H](n2/c(=N/C(=O)c3cccc(C#N)c3)[nH]c3cnc(OCCN4CCCCC4)cc32)CC1 [Example 91, (E)-3-Cyano-N-(1-(cis-4-(isopropylcarbamoyl)cyclohexyl)-6-(2-(piperidin-1-yl)ethoxy)-1H-imidazo[4,5-c]pyridin-2(3H)-ylidene)benzamide] | < 50 |
| CC(C)NC(=O)[C@H]1CC[C@@H](n2/c(=N/C(=O)c3cccc(C(F)(F)F)c3)[nH]c3cnc(OCCN4CCCCC4)cc32)CC1 [Example 92, (E)-N-(1-(cis-4-(Isopropylcarbamoyl)cyclohexyl)-6-(2-(piperidin-1-yl)ethoxy)-1H-imidazo[4,5-c]pyridin-2(3H)-ylidene)-3-(trifluoromethyl)benzamide] | < 50 |
| CC(C)NC(=O)[C@H]1CC[C@@H](n2/c(=N/C(=O)c3cccc(S(C)(=O)=O)c3)[nH]c3cnc(OCCN4CCCCC4)cc32)CC1 [Example 93, (E)-N-(1-(cis-4-(Isopropylcarbamoyl)cyclohexyl)-6-(2-(piperidin-1-yl)ethoxy)-1H-imidazo[4,5-c]pyridin-2(3H)-ylidene)-3-(methylsulfonyl)benzamide] | 1000 to 5000 |
| CC(C)NC(=O)[C@H]1CC[C@@H](n2/c(=N/C(=O)c3ccc(F)cc3F)[nH]c3cnc(OCCN4CCCCC4)cc32)CC1 [Example 94, (E)-2,4-Difluoro-N-(1-(cis-4-(isopropylcarbamoyl)cyclohexyl)-6-(2-(piperidin-1-yl)ethoxy)-1H-imidazo[4,5-c]pyridin-2(3H)-ylidene)benzamide] | 50 to 100 |

Source: US9115127B2 (AMGEN INC., priority 2010, dated 2015)
